This is an account of results in patent US20130022641A1, “Anti-Tumor Agent and Immunostimulating Agent” (ORION BREWERIES, LTD., priority 2005, published 2013).

Holding throughout (type): in vivo, C57BL/6 mice
One series concerns T cells. The series is described as follows: Annexin V detection of apoptosis in liver T cell fractions (control). Particulars: 2 μg/mouse; 24 hours after dosing. The method, then:
(§1) The basic method for the experiment is the same as that of the third embodiment. C57BL/6 8th-week mice were used. […] And 2 μg/mouse of αGalcer was likewise administered. After 24 hours following the dosing, lymphocytes had been separated from the livers of the mice over time. Triple labeling immunostaining was undertaken by fluorescently-labeled monoclonal antibody based on […] anti-CD3 antibody (Pharmingen) and PE-labeled anti-NK1.1 antibody (Pharmingen) for detection of NKT cells (CD3^+NK1.1^+), and FITC labeled Annexin V (Pharmingen) for detection of apoptosis cells. The method for immunostaining was subject to that of Non-Patent Document 1. Next, PerCP and PE were detected via flow cytometric analysis (FACSCalibur, Becton-Dickinson). Based on the fluorescence intensity thereof, NKT cells fractions (areas shown in c of FIG. 13) were obtained. […] According to the embodiment, cells which caused apoptosis within the fractions were detected via measurement of fluorescence intensity of FITC in such fractions. […]
(§2) Histograms of mouse NKT cell fractions and T cell fractions of unprocessed normal mouse cells are shown (A and D). […] The fluorescence intensity of fluorescent substance C is shown on the horizontal axis and the number of cells (in units) is shown on the vertical axis for each profile. […]

In the next series the test system is NKT cells (CD3+NK1.1+). The experiment in a line: Annexin V detection of apoptosis in liver NKT cell fractions. Particulars: 2 μg/mouse; 24 hours after dosing; normal mice peak around 10. The procedure:
as §1, §2

In a further series the test system is NKT cells of the liver. The experiment in a line: Flow cytometric analysis of liver NKT cells after intraperitoneal administration. Particulars: 2 μg/mouse, abdominal cavity. The method, then: C57BL/6 8th-week mice were used. […] Additionally, individuals that received 2 μg/mouse were used as positive controls. After dosing, lymphocytes were separated from the livers of the mice over time. Double labeling immunostaining was undertaken with 2 types of h monoclonal antibodies. FITC-labeled anti-CD3 (Phatrningen) and PE-labeled anti-NK1.1 (Pharmingen). Thereafter, flow cytometric analysis (FACSCalibur, Becton-Dickinson) was undertaken for dynamic states of NKT cells. In addition, a method of lymphocyte separation from the livers and the immunostaining method were subject to the methods of Non-Patent Document 7.
Cytograms show fluorescence intensities for FITC-labeled anti-CD3 on the horizontal axis and PE-labeled anti-NK1.1 antibody on the vertical axis in a log scale fashion. The larger the fluorescence intensities for FITC, the greater the number of CD3 molecules on the surfaces of cells. And the larger the PE fluorescence intensities, the greater the number of NK1.1 molecules on the measured surfaces of cells. […] Additionally, numeric values within the fractions represent the percentages of cells included in such fractions relative to all measured cells.
(In flow cytometry, cells or beads pass a laser one at a time.)

The subject of another series is INF-γ. The series is described as follows: Level of INF-γ in serum by ELISA. Particulars: 2 μg/mouse αGalcer, normal mouse about 40 μg/ml, FIG. 14. The procedure: Mice prepared in the third embodiment were used. After about 1 ml of blood had been collected from each mouse over time, serum was separated. The level of INF-γ in such serum was measured in accordance with the ELISA test. In regards to the ELISA test, a BD Opt EIA set (Pharmingen) was used, and the method was subject to the attached protocol.

The next series relates to GPT. The experiment in a line: Transaminase values in the serums (GPT), liver damage. Particulars: 2 μg/mouse, serum, normal mice about 11 IU/L. The method, then: The mice prepared in the third embodiment were used. After collecting about 1 ml of blood from each mouse over time, serums were separated. Transaminase values in the serums (GPT) were measured using of a Transaminase CII Test Wake (Wake Pure Chemical Industries, Ltd) as an extracorporeal diagnostic kit. The method for measurement was subject to the protocol attached with the kit. In addition, generally speaking, red cells of mice are easily hemolyzed. Thus. GOT values regarding which errors easily occur to results of measurements are not presented herein.
Herein, first, brief explanations are given in regards to GPT in the serums. GPT normally functions in liver cells. Due to destruction of […] caused by liver damage, such as hepatitis and the like, GPT leaks into the blood. Thus, increase of GPT values in the blood is an index of liver damage. Generally, it is understood that liver damage, such as hepatitis and the like, exists when the figures are greater than 100 IU (international unit)/L (liter).

With `CCCCCCCCCCCCCCCCCCCCCCCCCC(=O)N[C@@H](CO[C@H]1O[C@H](CO)[C@H](O)[C@H](O)[C@H]1O)[C@H](O)[C@H](O)CCCCCCCCCCCCCC` [αGalCer, a-Galactosyl ceramide], the “apoptosis induction in T cells” value in the series on T cells was “Apoptosis induction could not be recognized”. Further, the “peak of Annexin V fluorescence intensity in NKT cell fraction” value with NKT cells (CD3+NK1.1+) is on record as ~200. In addition, the “NKT cells in the liver” value with NKT cells of the liver (24 hours following administration) is given as “such tendency had not changed”; in the series on NKT cells of the liver (within 12 hours following dosing), “most NKT cells in the liver disappeared”. Besides, the “level of INF-γ in the blood” value in the series with INF-γ is “about 3,000 μg/ml”. Besides, the GPT values in the series on GPT (after 12 hours) came out at 116 IU/L; with GPT (after 24 hours), 183 IU/L.
